Source: the supplement of paper PMC10307832

Experiments:
Test in all cases: relative viability (nuclei count vs DMSO), 5 days (fraction); higher = more cells survive
[1] = test system: A-427
Procedure, shortened: (§1)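 For relative viability, nuclei counts in treated wells were divided by those in vehicle wells. Lung cancer cell lines had been pin-tool dosed in 1536-well plates the day after seeding and cultured for 5 days, then fixed and stained in one step (final 0.05% Triton X-100, 1% formaldehyde, 1 ug/ml Hoechst) and imaged at 4×. Doses were one drug alone or a fixed anchor-drug dose plus five library-drug doses (not always all listed) in √10 steps, and values are duplicate-plate medians.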

[2] = test system: COR-L 105
Procedure, shortened: as §1

[3] = test system: EKVX
Procedure, shortened: as §1

[4] = test system: EMC-BAC-2
Procedure, shortened: as §1

[5] = test system: H3255
Procedure, shortened: as §1

[6] = test system: HCC-366
Procedure, shortened: as §1

[7] = test system: LK-2
Procedure, shortened: as §1

[8] = test system: LOU-NH91
Procedure, shortened: as §1

[9] = test system: NCI-H1563
Procedure, shortened: as §1

[10] = test system: NCI-H1666
Procedure, shortened: as §1

[11] = test system: NCI-H1734
Procedure, shortened: as §1

[12] = test system: NCI-H1755
Procedure, shortened: as §1

[13] = test system: NCI-H1792
Procedure, shortened: as §1

[14] = test system: NCI-H1975
Procedure, shortened: as §1

[15] = test system: NCI-H2170
Procedure, shortened: as §1

[16] = test system: NCI-H23
Procedure, shortened: as §1

[17] = test system: NCI-H520
Procedure, shortened: as §1

[18] = test system: NCI-H596
Procedure, shortened: as §1

[19] = test system: PC-3 [JPC-3]
Procedure, shortened: as §1

[20] = test system: SK-MES-1
Procedure, shortened: as §1

With `CC1(C)CCC(c2ccc(Cl)cc2)=C(CN2CCN(c3ccc(C(=O)NS(=O)(=O)c4ccc(N[C@H](CCN5CCOCC5)CSc5ccccc5)c(S(=O)(=O)C(F)(F)F)c4)cc3)CC2)C1` [Navitoclax] + CS(=O)(=O)CCNCc1ccc(-c2ccc3ncnc(Nc4ccc(OCc5cccc(F)c5)c(Cl)c4)c3c2)o1 [Lapatinib] (partner 2 µM) the relative viability ([1]; first compound 0.005 µM) was 1.05, the relative viability ([1]; first compound 0.01581 µM) was 0.956 and the relative viability ([1]; first compound 0.05 µM) was 0.825. For the same compound, the relative viability ([1]; first compound 0.1581 µM) was 1.05, the relative viability ([1]; first compound 0.5 µM) was 1.06 and the relative viability ([2]; first compound 0.005 µM) was 0.335. The relative viability ([2]; first compound 0.01581 µM) was 0.407, the relative viability ([2]; first compound 0.05 µM) was 0.307 and the relative viability ([2]; first compound 0.1581 µM) was 0.282. The relative viability ([2]; first compound 0.5 µM) was 0.333, the relative viability ([3]; first compound 0.005 µM) was 0.233 and the relative viability ([3]; first compound 0.01581 µM) was 0.21. For the same compound, the relative viability ([3]; first compound 0.05 µM) was 0.161, the relative viability ([3]; first compound 0.1581 µM) was 0.206 and the relative viability ([3]; first compound 0.5 µM) was 0.206. The relative viability ([4]; first compound 0.005 µM) was 0.895, the relative viability ([4]; first compound 0.01581 µM) was 0.893 and the relative viability ([4]; first compound 0.05 µM) was 0.884. The relative viability ([4]; first compound 0.1581 µM) was 0.963, the relative viability ([4]; first compound 0.5 µM) was 0.943 and the relative viability ([5]; first compound 0.005 µM) was 0.271. It also gave a relative viability ([5]; first compound 0.01581 µM) of 0.258, a relative viability ([5]; first compound 0.05 µM) of 0.226 and a relative viability ([5]; first compound 0.1581 µM) of 0.25. It also gave a relative viability ([5]; first compound 0.5 µM) of 0.19, a relative viability ([6]; first compound 0.005 µM) of 1 and a relative viability ([6]; first compound 0.01581 µM) of 1.16. For the same compound, the relative viability ([6]; first compound 0.05 µM) was 0.348, the relative viability ([6]; first compound 0.1581 µM) was 1.04 and the relative viability ([6]; first compound 0.5 µM) was 1.08. The relative viability ([7]; first compound 0.005 µM) was 0.802, the relative viability ([7]; first compound 0.01581 µM) was 1.08 and the relative viability ([7]; first compound 0.05 µM) was 1.04. For the same compound, the relative viability ([7]; first compound 0.1581 µM) was 0.886, the relative viability ([7]; first compound 0.5 µM) was 1.05 and the relative viability ([8]; first compound 0.005 µM) was 0.802. The relative viability ([8]; first compound 0.01581 µM) was 0.858, the relative viability ([8]; first compound 0.05 µM) was 0.756 and the relative viability ([8]; first compound 0.1581 µM) was 0.681. The relative viability ([8]; first compound 0.5 µM) was 0.549, the relative viability ([9]; first compound 0.005 µM) was 1.08 and the relative viability ([9]; first compound 0.01581 µM) was 1.23. The relative viability ([9]; first compound 0.05 µM) was 0.877, the relative viability ([9]; first compound 0.1581 µM) was 1.05 and the relative viability ([9]; first compound 0.5 µM) was 1.44. The relative viability ([10]; first compound 0.005 µM) was 0.584, the relative viability ([10]; first compound 0.01581 µM) was 0.694 and the relative viability ([10]; first compound 0.05 µM) was 0.524. The relative viability ([10]; first compound 0.1581 µM) was 0.579, the relative viability ([10]; first compound 0.5 µM) was 0.425 and the relative viability ([11]; first compound 0.005 µM) was 1.09. For the same compound, the relative viability ([11]; first compound 0.01581 µM) was 1.16, the relative viability ([11]; first compound 0.1581 µM) was 0.973 and the relative viability ([11]; first compound 0.5 µM) was 1.09. It also gave a relative viability ([12]; first compound 0.005 µM) of 1.04, a relative viability ([12]; first compound 0.01581 µM) of 1.13 and a relative viability ([12]; first compound 0.05 µM) of 0.836. The relative viability ([12]; first compound 0.1581 µM) was 0.984, the relative viability ([12]; first compound 0.5 µM) was 1.02 and the relative viability ([13]; first compound 0.005 µM) was 0.901. It also gave a relative viability ([13]; first compound 0.01581 µM) of 1.05, a relative viability ([13]; first compound 0.05 µM) of 0.662 and a relative viability ([13]; first compound 0.1581 µM) of 0.938. The relative viability ([13]; first compound 0.5 µM) was 0.878, the relative viability ([14]; first compound 0.005 µM) was 0.859 and the relative viability ([14]; first compound 0.01581 µM) was 1.02. For the same compound, the relative viability ([14]; first compound 0.05 µM) was 1.23, the relative viability ([14]; first compound 0.1581 µM) was 0.8 and the relative viability ([14]; first compound 0.5 µM) was 0.893. It also gave a relative viability ([15]; first compound 0.005 µM) of 0.275, a relative viability ([15]; first compound 0.01581 µM) of 0.283 and a relative viability ([15]; first compound 0.05 µM) of 0.312. The relative viability ([15]; first compound 0.1581 µM) was 0.285, the relative viability ([15]; first compound 0.5 µM) was 0.26 and the relative viability ([16]; first compound 0.005 µM) was 1.05. The relative viability ([16]; first compound 0.01581 µM) was 1.05, the relative viability ([16]; first compound 0.05 µM) was 1.11 and the relative viability ([16]; first compound 0.1581 µM) was 1.05. It also gave a relative viability ([16]; first compound 0.5 µM) of 1.09, a relative viability ([17]; first compound 0.005 µM) of 0.855 and a relative viability ([17]; first compound 0.01581 µM) of 0.965. For the same compound, the relative viability ([17]; first compound 0.05 µM) was 0.967, the relative viability ([17]; first compound 0.1581 µM) was 0.763 and the relative viability ([17]; first compound 0.5 µM) was 0.758. It also gave a relative viability ([18]; first compound 0.005 µM) of 1.12, a relative viability ([18]; first compound 0.01581 µM) of 1.23 and a relative viability ([18]; first compound 0.05 µM) of 0.955. For the same compound, the relative viability ([18]; first compound 0.1581 µM) was 1.28, the relative viability ([18]; first compound 0.5 µM) was 1.06 and the relative viability ([19]; first compound 0.005 µM) was 0.403. For the same compound, the relative viability ([19]; first compound 0.01581 µM) was 0.438, the relative viability ([19]; first compound 0.05 µM) was 0.441 and the relative viability ([19]; first compound 0.1581 µM) was 0.474. It also gave a relative viability ([19]; first compound 0.5 µM) of 0.487, a relative viability ([20]; first compound 0.005 µM) of 0.462 and a relative viability ([20]; first compound 0.01581 µM) of 0.552. The relative viability ([20]; first compound 0.05 µM) was 0.497, the relative viability ([20]; first compound 0.1581 µM) was 0.458 and the relative viability ([20]; first compound 0.5 µM) was 0.523.
